SMILES strings stand for the structures.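 Protocol summary: plate cells (96-well), add compound at 5 concentrations, incubate 48 h, interpolate endpoints linearly. The concentration for 50% growth inhibition is given as GI50. TGI denotes the concentration required for complete inhibition of growth.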

Common to all, as to test: inhibition of tumour cell growth, NCI panel, 48 h
Test [1] relates to 786-0 renal.
Test [2] concerns SK-MEL-5 melanoma.
In test [3] the test system is A498 renal.
The subject of test [4] is NCI-H23 lung.
Test [5] concerns TK-10 renal.
Test [6] concerns RPMI-8226 leukemia.
The subject of test [7] is NCI-H522 lung.
For test [8], the system named is T-47D breast.
In test [9] the test system is MCF7 breast.

Consider `COC(=O)C1CCC2(CC1)NC(=O)NC2=O` (centres undefined), for which the TGI in [1], in test [2], in test [3], in test [4], in test [5] and in [6] was above 100 µM in each case. In test [7], the TGI was above 100 µM.

Take `NCCN.O=N[O-].O=N[O-].O=N[O-].O=N[O-].[Co+3].[K+]`: the GI50 in test [1], in test [2], in [3], in [4], in [5] and in test [6] was above 100 µM each time. Further, the GI50 in test [7] was above 100 µM. Besides, the TGI in test [1], in test [2], in [3], in test [4], in test [5] and in test [6] was above 100 µM each time. Also, in test [7], the TGI was above 100 µM.

Take `CC(=O)OC12CCCCC1C1(CCCC1)NC2=O` (centres undefined): the TGI in [1], in [3], in test [4], in test [5] and in test [6] was above 100 µM in each case.

With `CN(C)CCCn1c2c(c3ccc([N+](=O)[O-])cc3c1=O)C(=O)c1ccccc1-2`, the GI50 in test [1] is 4.75 µM; in test [2], 3.79 µM; in test [4] it was 4.95 µM; in test [8], 24.1 µM; in test [5], 15.3 µM; in test [6] it was 3.46 µM. Further, the GI50 in test [9] was 2.41 µM; in test [7], 4.2 µM. Besides, the TGI in test [1] is 21.2 µM; in [2], 16.6 µM; in [4], 24.2 µM; in [8], above 100 µM; in [5], 73.7 µM; in [6], 19.3 µM. In addition, the TGI in [9] and in test [7] was above 100 µM throughout.

With `CCOc1ccccc1Nc1nc(C)c(C(=O)CC(=O)C(=O)Nc2ccccc2)s1`, the TGI is above 100 µM in [1]; above 100 µM in [2]; above 100 µM in test [3]; above 100 µM in test [4]; above 100 µM in test [5]; 84.8 µM in test [7].

For the molecule `CC(=O)/C=C\C(=O)NNS(=O)(=O)c1ccc(C)cc1`, the TGI in [1], in test [2], in [3], in test [4], in test [5] and in test [6] was above 100 µM each time. Moreover, the TGI in [7] was above 100 µM.

Turning to `Cc1nn(C(=O)CC(=O)Nc2ccccc2Cl)c(C)c1N=Nc1ccccc1Cl`, the TGI in [1], in test [2], in test [3], in test [4] and in test [5] was above 100 µM throughout.

Turning to `COc1cc(C2C(C(=O)Nc3ccc(Cl)c(Cl)c3)=C(C)NC(C)=C2C(=O)Nc2ccc(Cl)c(Cl)c2)ccc1O`, the TGI in test [1] stood at 25.3 µM; in test [2], 25.5 µM; in test [3], 28.5 µM; in [4] it was 27.5 µM; in test [5], 42.6 µM; in test [6], 30.1 µM. Moreover, in test [7], the TGI was determined as 14.7 µM.

Take `O=C1[C@@H]2C3C=CC([C@H]4C(=O)N(CO)C(=O)[C@@H]34)[C@@H]2C(=O)N1CO`: the TGI in test [1] is above 63.6 µM; in test [2], above 100 µM; in test [3], above 100 µM; in test [4], above 100 µM; in test [5], above 100 µM; in test [6], 49.5 µM. The same molecule returned a TGI in [7] above 56.5 µM.

For `O=C1c2ccccc2CC1C1(O)C(=O)Nc2c(Cl)cc(Cl)cc21` (centres undefined), the TGI in test [1] was above 100 µM; in test [2], above 100 µM; in test [4] it was above 100 µM; in test [5], above 100 µM; in test [6] it was above 100 µM; in [7], 47.3 µM.

As for `Nc1n[nH]c(=O)c2c1c(Br)cn2C1OC(CO)C(O)C1O` (centres undefined), the TGI in [1] was above 100 µM; in test [2] it was 45.4 µM; in test [3], above 71.2 µM; in [4], 25 µM; in [5], above 100 µM; in test [6], 22.5 µM. For the same molecule, in test [7], the TGI is 25.2 µM.

As for `COc1ccc(/C=C(\NC(=O)c2ccccc2)c2nc3ccccc3[nH]2)cc1`, the TGI in test [1] was above 100 µM; in test [2], 29 µM; in test [3], above 100 µM; in test [4] it was 56.1 µM; in test [6], 69.9 µM; in test [7], above 100 µM.

On to `O=S(O)CCCSSCCCCSSCCCS(=O)O`, for which the TGI in test [1], in test [2], in test [3], in [4], in test [5] and in test [7] was above 100 µM in each case.

With `O=C1OC2C(O)COC2(OCc2c[nH]c3ccccc23)C1O` (centres undefined) (tested in a mixture with another compound), the TGI in [1], in test [2], in test [3], in test [4], in test [5] and in test [6] was above 100 µM in each case. In test [7], this molecule showed a TGI above 100 µM.

With `COC(=O)c1c(OC(=O)c2ccccc2)noc1CC(=O)OC1C=CCCC1` (centres undefined), the TGI is above 100 µM in test [1]; 81.7 µM in test [2]; above 100 µM in [3]; above 100 µM in test [5]; above 100 µM in test [6]; above 100 µM in [7].

Take `O=C(Nc1cccc(Cl)c1)c1cc2cc(N=Nc3ccc(Br)cc3)ccc2oc1=O`: the TGI in [1] was above 100 µM; in [2], above 100 µM; in test [3] it was above 100 µM; in test [4], 64.3 µM; in [5] it was above 100 µM; in [6], above 100 µM. Besides, the TGI in test [7] was above 100 µM.

Source of the values: PubChem BioAssay (NCI).
